{"source": "patent US8846914B2", "about": "“Compositions to effect neuronal growth” (Neuralstem, Inc., priority 2003, dated 2014)", "key": {"[1]": {"test_system": "human hippocampal stem cells", "test": "Neurogenesis, TuJ1 immunostaining / Hoechst (primary screen)", "assay_type": "cell-based", "from_the_text": "FIG. 2 is a bar graph illustrating an example of a neurogenesis profile of compounds selected from primary screening. After seven days of compound treatment, the cells were stained with the neuron-specific anti-tubulin IIIb antibody. TuJ1, for neurons and Hoechst for all cell nuclei. Shown are the relative ratio of neuron: total cells for each compound over the vehicle control in percentage. Typical ratio for vehicle control is 40-50% neurons. The ratio can change by either increased differentiation of stem cells to neurons, decreased proliferation of astrocytes, or increased proliferation of neuronal progenitors.\nFIG. 3 is a bar graph illustrating an example of a neurogenesis profile of compounds selected from primary screening. After seven days of compound treatment, the cells were stained with TuJ1 for neurons. The number of TuJ1+ neurons per area was quantified and expressed as a relative value to the vehicle treated control.\nThe final neuron number is detected by immunostaining of the culture with antibodies against neurons and is quantified by counting of the immunopositive neurons and/or by measuring the staining intensity. Therefore, after seven days of compound treatment, the cells are stained with the neuron-specific anti-tubulin IIIb antibody, TuJ1, for neurons and Hoechst for all cell nuclei. The number of TuJ1+ neurons per area is quantified and expressed as a value relative to the vehicle-treated control of Hoechst-stained cells. In this regard, the medium is removed from the wells by decanting and blotting the plates on paper towels. The cells are then fixed in 100 μl of 4% paraformaldehyde per well for thirty minutes at room temperature. The cells are washed three times with 400 μl per well of phosphate-buffered saline (PBS) at pH 7.5 for approximately ten minutes per wash. The plates are then stored at 4° C. in PBS or used immediately for staining.\nThe cells are subsequently stained with antibodies against neuron-specific antigens according to standard procedures. The staining process includes decanting the PBS and blocking the cells with 100 μl of 5% Normal Goat Serum (NGS) in PBS for one hour at room temperature. The NGS/PBS is decanted and the plates are blotted on a paper towel. The cells are then permeabilized with 0.1% Triton X-100 in PBS for 30 minutes at room temperature.\nTypical neuron-specific antigens include Type III-beta tubulin and MAP-2c. The total cell number in each well was quantified by staining the cultures with a nuclear dye such as DAPI or Hoechst according to standard procedures. Therefore, once the cells are permeabilized, 20 μl of TuJ1, monoclonal antibody against neuronal class 111 β-tubulin (CoVance (BabCo) MMS-435P) and 32 μl of anti-GFAP polyclonal (DAKO Z0334) are added to and mixed of PBS with 5% NGS. Final dilutions of TuJ1 and anti-GFAP are 1:400 and 1:250, respectively. 90 μl of the antibody solution is added to each well except two eleventh column. 90 μl of PBS/5% NGS is added to the eleventh column and no cells are added to the twelfth column. The plate(s) are sealed with parafilm and incubated at 4° C. overnight.\nAfter incubating the cells overnight, the antibody solution is decanted and 200 μl of PBS/0.1% Triton X-100 is added to the wells. The plate(s) are placed on a shaker and incubated at room temperature with gentle shaking for ten minutes. The cells are again washed with the PBS/Triton X-100 solution another two times.\nFollowing staining with TuJ1 and anti-GFAP, 20 μl of Alexa Fluor 488 labeled goat anti-moose IgG (H+L) (Molecular Probes A-11001) and 100 μl of LRSC-IgG, goat anti-rabbit (Jackson Immune 111-295-144) is added and mixed with 10 ml of PBS/5% NGS. 100 μl of the resulting antibody solution is added to each well. The plate(s) are covered with foil and incubated with gentle shaking for up to one hour at room temperature. The cells are again washed as described above with PBS and an Triton X-100. […]"}, "[2]": {"test_system": "human hippocampal stem cells", "settings": "positive control; as described in U.S. Ser. No. 10/728,652; cited from earlier work"}}, "data": [{"compound": "COc1ccc(C2CNC(=O)C2)cc1OC1CCCC1", "note": "(centres unmarked) [Rolipram, reference compound]", "values": [{"measurement": "Activity in primary in vitro neurogenesis screen", "setting": "[1]", "value": "effective"}]}, {"compound": "LIF: leukemia inhibitory factor (LIF), a cytokine growth factor, positive control", "values": [{"measurement": "Increase of the number of neurons and glia", "setting": "[2]", "value": "two to three-fold"}]}]}
